We go through 13 compounds from US12091426B2, “Bifunctional degraders of hematopoietic progenitor kinase and therapeutic uses thereof” (Nurix Therapeutics, Inc., priority 2021, dated 2024).

The experiment has as its target T1, HPK1 (Homo sapiens, UniProt Q92918).
T1 construct: A HiBiT tag was introduced by CRISPR on the N terminus of HPK1 in Jurkat cells; host or cells: Jurkat cells (ATCC TIB-152), monoclonal line with CRISPR knock-in of HiBiT at the endogenous HPK1 locus
Description: HPK1 Cellular HiBit Degradation Assay. It is filed as cell-based. Conditions: HiBiT HPK1 Jurkat cells, 24 hrs; for DC50: concentration at which 50% of HPK1 was remaining, read-out: DC50 Category; for Dmax: Jurkat, read-out: Dmax Category; for Dmax / Dmax Category: maximum degradation vs DMSO vehicle control. The procedure, abridged:
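HPK1 levels are read by HiBiT luminescence after 24 h exposure of HiBiT-knock-in Jurkat cells to compound at 10 uM–0.1 nM final (11 points). Relative to DMSO (100%), DC50 is the concentration leaving 50% HPK1 from a variable-slope fit, and Dmax is 100 minus minimum remaining. Viability checked in-plate.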

T1 sequence (Q92918 whole entry): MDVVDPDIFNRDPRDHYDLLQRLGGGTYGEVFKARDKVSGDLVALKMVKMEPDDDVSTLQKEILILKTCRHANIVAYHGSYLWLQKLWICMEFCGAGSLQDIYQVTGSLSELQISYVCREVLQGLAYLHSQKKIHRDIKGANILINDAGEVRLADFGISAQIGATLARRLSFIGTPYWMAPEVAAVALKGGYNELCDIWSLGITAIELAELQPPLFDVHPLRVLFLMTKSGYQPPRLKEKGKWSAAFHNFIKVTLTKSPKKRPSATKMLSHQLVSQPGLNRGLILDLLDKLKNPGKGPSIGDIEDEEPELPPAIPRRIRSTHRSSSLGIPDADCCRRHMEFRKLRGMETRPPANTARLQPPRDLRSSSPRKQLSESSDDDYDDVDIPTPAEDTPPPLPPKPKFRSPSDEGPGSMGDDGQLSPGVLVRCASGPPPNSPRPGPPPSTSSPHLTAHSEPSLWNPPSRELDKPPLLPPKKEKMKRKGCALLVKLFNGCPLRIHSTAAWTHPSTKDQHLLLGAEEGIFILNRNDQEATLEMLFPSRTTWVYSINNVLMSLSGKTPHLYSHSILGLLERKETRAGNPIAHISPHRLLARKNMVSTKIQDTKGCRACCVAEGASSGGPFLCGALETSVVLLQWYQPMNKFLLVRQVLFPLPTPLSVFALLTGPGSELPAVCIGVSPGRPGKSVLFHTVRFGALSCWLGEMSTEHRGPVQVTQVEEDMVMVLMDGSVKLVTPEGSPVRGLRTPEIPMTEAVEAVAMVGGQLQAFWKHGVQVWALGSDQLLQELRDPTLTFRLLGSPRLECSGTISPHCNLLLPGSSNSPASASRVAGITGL

With `CC(C)n1cnc2cc(-c3ccc4c(c3)N([C@H]3C[C@@H](N5CCCCC5)C3)C(=O)C43CCN(CC(=O)N(C)C4CCN(C(=O)C5CCN(c6cc(C7CCC(=O)NC7=O)ccn6)CC5)CC4)CC3)nc(NC3CC3)c21` (stereo partly drawn) [Example 201, 2-{6-[4-(cyclopropylamino)-3-(propan-2-yl)-3H-imidazo[4,5-c]pyridin-6-yl]-2-oxo-1-[(1S,3S)-3-(piperidin-1-yl)cyclobutyl]-1,2-dihydrospiro[indole-3,4′-piperidin]-1′-yl}-N-(1-{1-[4-(2,6-dioxopiperidin-3-yl)pyridin-2-yl]piperidine-4-carbonyl}piperidin-4-yl)-N-methylacetamide], the DC50 lay in the range of 100 to 500 nM and the maximal degradation (Dmax) is 50 to 70%.

In the case of `CC(C)n1cnc2cc(-c3ccc4c(c3)N([C@H]3C[C@@H](N5CCCCC5)C3)C(=O)C43CCN(C(=O)[C@@H]4CCN(C(=O)[C@H]5CC[C@H](Nc6ccc(C7CCC(=O)NC7=O)cc6)CC5)C4)CC3)nc(Nc3ccncc3F)c21` (stereo partly drawn) [Example 4, 3-(4-(((1R,4R)-4-((R)-3-(6-(4-((3-fluoropyridin-4-yl)amino)-3-isopropyl-3H-imidazo[4,5-c]pyridin-6-yl)-2-oxo-1-((1S,3S)-3-(piperidin-1-yl)cyclobutyl)spiro[indoline-3,4′-piperidine]-1′-carbonyl)pyrrolidine-1-carbonyl)cyclohexyl)amino)phenyl)piperidine-2,6-dione], the 50% degradation concentration (DC50) was < 100 nM and the maximal degradation (Dmax) is > 85%.

With `CC(C)n1cnc2cc(-c3ccc4c(c3)N([C@H]3C[C@@H](N5CCCCC5)C3)C(=O)C43CCN(C(=O)C4CCN(C(=O)C5CCN(c6ccc(C7CCC(=O)NC7=O)cn6)CC5)CC4)CC3)nc(NC3CCOCC3)c21` (mixture of isomers) [Example 78, (3RS)-3-[6-(4-{4-[(6-{4-[(oxan-4-yl)amino]-3-(propan-2-yl)-3H-imidazo[4,5-c]pyridin-6-yl}-2-oxo-1-[(1S,3S)-3-(piperidin-1-yl)cyclobutyl]-1,2-dihydrospiro[indole-3,4′-piperidin]-1′-yl)carbonyl]piperidine-1-carbonyl}piperidin-1-yl)pyridin-3-yl]piperidine-2,6-dione], the DC50 is < 100 nM and the Dmax lay within 50 to 70%.

In the case of `CC(C)n1cnc2cc(-c3ccc4c(c3)N([C@H]3C[C@@H](N5CCCCC5)C3)C(=O)C43CCN(C(=O)C4CN(C(=O)C5CCN(c6ccc(C7CCC(=O)NC7=O)cn6)CC5)CC5(CCC5)C4)CC3)nc(NC3CC3)c21` (mixture of isomers) [Example 267, (3RS)-3-(6-{4-[8-({6-[4-(cyclopropylamino)-3-(propan-2-yl)-3H-imidazo[4,5-c]pyridin-6-yl]-2-oxo-1-[(1S,3S)-3-(piperidin-1-yl)cyclobutyl]-1,2-dihydrospiro[indole-3,4′-piperidin]-1′-yl}carbonyl)-6-azaspiro[3.5]nonane-6-carbonyl]piperidin-1-yl}pyridin-3-yl)piperidine-2,6-dione], the DC50 is < 100 nM and the Dmax lay within 50 to 70%.

On to `CC(C)n1cnc2cc(-c3ccc4c(c3)N([C@H]3C[C@@H](N5CCCCC5)C3)C(=O)C43CCN(C(=O)C45CN(C(=O)C6CCN(c7ccc(C8CCC(=O)NC8=O)cn7)CC6)CC(F)(C4)C5)CC3)nc(NC3CC3)c21` (mixture of isomers) [Example 279, (3RS)-3-(6-{4-[1-({6-[4-(cyclopropylamino)-3-(propan-2-yl)-3H-imidazo[4,5-c]pyridin-6-yl]-2-oxo-1-[(1S,3S)-3-(piperidin-1-yl)cyclobutyl]-1,2-dihydrospiro[indole-3,4′-piperidin]-1′-yl}carbonyl)-5-fluoro-3-azabicyclo[3.1.1]heptane-3-carbonyl]piperidin-1-yl}pyridin-3-yl)piperidine-2,6-dione], for which the half-maximal degradation concentration (DC50) was < 100 nM and the maximal degradation (Dmax) lay in the range of 70 to 85%.

In the case of `CC(C)n1cnc2cc(-c3ccc4c(c3)N([C@H]3C[C@@H](N5CCCCC5)C3)C(=O)C43CCN(C(=O)[C@@H]4CCN(C(=O)[C@H]5CC[C@H](Nc6cncc(C7CCC(=O)NC7=O)c6)CC5)C4)CC3)nc(Nc3ccccc3F)c21` (mixture of isomers) [Example 12, (3RS)-3-(5-{[(1R,4R)-4-[(3R)-3-[(6-{4-[(2-fluorophenyl)amino]-3-(propan-2-yl)-3H-imidazo[4,5-c]pyridin-6-yl}-2-oxo-1-[(1S,3S)-3-(piperidin-1-yl)cyclobutyl]-1,2-dihydrospiro[indole-3,4′-piperidin]-1′-yl)carbonyl]pyrrolidine-1-carbonyl]cyclohexyl]amino}pyridin-3-yl)piperidine-2,6-dione], the DC50 was in the range of 500 to 1000 nM and the greatest degradation seen (Dmax) is 70 to 85%.

In the case of `CC(C)n1cnc2cc(-c3ccc4c(c3)N([C@H]3C[C@@H](N5CCCCC5)C3)C(=O)C43CCN(C(=O)[C@H]4CC[C@H](C(=O)N5CCC(N(C)c6ccc(C7CCC(=O)NC7=O)cc6)CC5)CC4)CC3)nc(NC3CC3)c21` (mixture of isomers) [Example 134, (3RS)-3-{4-[methyl({1-[(1R,4R)-4-({6-[4-(cyclopropylamino)-3-(propan-2-yl)-3H-imidazo[4,5-c]pyridin-6-yl]-2-oxo-1-[(1S,3S)-3-(piperidin-1-yl)cyclobutyl]-1,2-dihydrospiro[indole-3,4′-piperidin]-1′-yl}carbonyl)cyclohexanecarbonyl]piperidin-4-yl})amino]phenyl}piperidine-2,6-dione], the DC50 lay in the range of 100 to 500 nM and the Dmax lay within 50 to 70%.

Consider `CC(C)n1cnc2cc(-c3ccc4c(c3)N([C@H]3C[C@@H](N5CCCCC5)C3)C(=O)C43CCN(C(=O)C4(C)CCN(C(=O)C5CCN(c6ccc(C7CCC(=O)NC7=O)cn6)CC5)CC4)CC3)nc(NC3CC4(COC4)C3)c21` (stereo partly drawn) [Example 177, 3-(6-{4-[4-methyl-4-({6-[4-({2-oxaspiro[3.3]heptan-6-yl}amino)-3-(propan-2-yl)-3H-imidazo[4,5-c]pyridin-6-yl]-2-oxo-1-[(1S,3S)-3-(piperidin-1-yl)cyclobutyl]-1,2-dihydrospiro[indole-3,4′-piperidin]-1′-yl}carbonyl)piperidine-1-carbonyl]piperidin-1-yl}pyridin-3-yl)piperidine-2,6-dione], for which the 50% degradation concentration (DC50) was < 100 nM and the Dmax lay within 70 to 85%.

In the case of `CC(C)n1cnc2cc(-c3ccc4c(c3)N(C3CC(N5CCCCC5)C3)C(=O)C43CCN(C(=O)CC4(C)CCN(C(=O)C5CCN(c6ccc(C7CCC(=O)NC7=O)cn6)CC5)CC4)CC3)nc(NC3CC3)c21` (racemic) [Example 149, (3RS)-3-(6-{4-[4-(2-{6-[4-(cyclopropylamino)-3-(propan-2-yl)-3H-imidazo[4,5-c]pyridin-6-yl]-2-oxo-1-[(1S,3S)-3-(piperidin-1-yl)cyclobutyl]-1,2-dihydrospiro[indole-3,4′-piperidin]-1′-yl}-2-oxoethyl)-4-methylpiperidine-1-carbonyl]piperidin-1-yl}pyridin-3-yl)piperidine-2,6-dione], the DC50 was < 100 nM and the “Dmax Category” value is reported as “B (B: >70%-<85%)”.

As for `CC(C)n1cnc2cc(-c3ccc4c(c3)N([C@H]3C[C@@H](N5CCCCC5)C3)C(=O)C43CCN(C(=O)C4(CF)CCN(C(=O)C5CCN(c6ccc(C7CCC(=O)NC7=O)cn6)CC5)CC4)CC3)nc(NC3CC3)c21` (mixture of isomers) [Example 278], the half-maximal degradation concentration (DC50) is < 100 nM and the Dmax is > 85%.

For `CC(C)n1cnc2cc(-c3ccc4c(c3)N([C@H]3C[C@@H](N5CCCCC5)C3)C(=O)C43CCN(C(=O)C4(C)CCN(C(=O)C5CCN(c6ccc(C7CCC(=O)NC7=O)cn6)CC5)CC4)CC3)nc(N[C@H]3C[C@H](C#N)C3)c21` (stereo partly drawn) [Example 176, (1R,3R)-3-({6-[1′-(1-{1-[5-(2,6-dioxopiperidin-3-yl)pyridin-2-yl]piperidine-4-carbonyl}-4-methylpiperidine-4-carbonyl)-2-oxo-1-[(1S,3S)-3-(piperidin-1-yl)cyclobutyl]-1,2-dihydrospiro[indole-3,4′-piperidin]-6-yl]-3-(propan-2-yl)-3H-imidazo[4,5-c]pyridin-4-yl}amino)cyclobutane-1-carbonitrile], the DC50 is 100 to 500 nM and the Dmax lay in the range of 70 to 85%.

In the case of `CC(C)n1cnc2cc(-c3ccc4c(c3)N([C@H]3C[C@@H](N5CCCCC5)C3)C(=O)C43CCN(C(=O)[C@H]4CC[C@H](C(=O)N5CCC(N(C)c6ccc(C7CCC(=O)NC7=O)cn6)CC5)CC4)CC3)nc(Nc3ccncc3F)c21` (mixture of isomers) [Example 139, (3RS)-3-{6-[methyl({1-[(1R,4R)-4-[(6-{4-[(3-Fluoropyridin-4-yl)amino]-3-(propan-2-yl)-3H-imidazo[4,5-c]pyridin-6-yl}-2-oxo-1-[(1S,3S)-3-(piperidin-1-yl)cyclobutyl]-1,2-dihydrospiro[indole-3,4′-piperidin]-1′-yl)carbonyl]cyclohexanecarbonyl]piperidin-4-yl})amino]pyridin-3-yl}piperidine-2,6-dione], the DC50 was < 100 nM and the maximal degradation (Dmax) fell in the range of 70 to 85%.

For the compound `CC(C)n1cnc2cc(-c3ccc4c(c3)N([C@H]3C[C@@H](N5CCCCC5)C3)C(=O)C43CCN(C(=O)C4(C)CCN(C(=O)C5CCN(c6ccc([C@H]7CCC(=O)NC7=O)cn6)CC5)CC4)CC3)nc(NC3CC3)c21` [Example 213, (3R)-3-(6-{4-[4-({6-[4-(cyclopropylamino)-3-(propan-2-yl)-3H-imidazo[4,5-c]pyridin-6-yl]-2-oxo-1-[(1S,3S)-3-(piperidin-1-yl)cyclobutyl]-1,2-dihydrospiro[indole-3,4′-piperidin]-1′-yl}carbonyl)-4-methylpiperidine-1-carbonyl]piperidin-1-yl}pyridin-3-yl)piperidine-2,6-dione], the DC50 was < 100 nM and the “Dmax Category” value was “B (B: >70%-<85%)”.
